Laboratory results published in article PMC9775191, “A Subset Screen of the Compounds Australia Scaffold Library Identifies 7-Acylaminodibenzoxazepinones as Potent and Selective Hits for Anti-Giardia Drug Discovery” (Biomedicines, 2022).

Tested on: G. duodenalis BRIS/91/HEPU/1279
Assay: Primary Giardia screen at 10 µM (live-cell imaging, automated counting)
Type: cell-based, Giardia duodenalis
Settings: 48 h, first singlicate assay
Procedure, shortened: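 Percent growth versus 0.2% DMSO vehicle, background-corrected with media-only wells, is reported at 24 and 48 h from automated live-cell counts. Testing used 10 μM final in a 3% O2 atmosphere, with plate quality checked by Z' factor.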

SMILES	% Inhibition n=1 48h
Cc1ccc(S(=O)(=O)[C@H]2CS(=O)(=O)C[C@@H]2N2CCC(C(N)=O)CC2)cc1 (relative stereo) [SN00786616]	0.0%
O=C(CCc1cnn(-c2ccccc2)c1)Nc1cc(C2CCOCC2)[nH]n1 [SN00782289]	8.0%
COc1ccc(CCn2c(=O)c3ncccc3n(Cc3ccc(C)cc3)c2=O)cc1OC [SN00789585]	1.7%
CCS(=O)(=O)c1ncc(N(Cc2ccco2)Cc2ccccc2F)c(C(=O)Nc2ccccc2)n1 [SN00786098]	17.4%
O=C(NC1CCN(c2cc(-c3cccs3)n[nH]2)C1)c1ccc2[nH]cnc2c1 (centres unmarked) [SN00800411]	29.6%
CC(C)n1cc2cc(C(=O)NCCCN3CCCc4ccccc43)sc2c1 [SN00802034]	3.6%
CNc1cccnc1OC1CCN(C(=O)CCc2nc3ccccc3[nH]2)C1 (centres unmarked) [SN00799967]	11.3%
Cc1ccc2c(c1)n(Cc1ccc(Cl)cc1)c(=O)c1nc(C(=O)NCCc3cccs3)nn12 [SN00794982]	29.9%
COc1ccc2oc(-c3noc(C(NC(=O)c4ccco4)C(C)C)n3)c(C)c2c1 (centres unmarked) [SN00796606]	9.9%
COc1ccc(C2CCCN2C(=O)c2cnn(-c3ccc(C(F)(F)F)cn3)c2C)cc1 (centres unmarked) [SN00774591]	35.2%
CCCN1CCN(C(=O)C2=C(C)C(=O)OC23CCN(S(=O)(=O)CC)CC3)CC1 [SN00791149]	0.0%
O=C(Nc1cccc(C(=O)N2CCCC2C(=O)NCCc2ccccc2)c1)c1cccs1 (centres unmarked) [SN00794771]	3.7%
Cc1nc(-c2ccccn2)cc2nn(CC(=O)N3CCC(Cc4ccccc4)CC3)c(=O)n12 [SN00799441]	4.9%
COc1ccc(CNc2nc(-c3cccc(OC)c3)no2)cc1 [SN00791772]	0.0%
Cc1cc(C)c(S(=O)(=O)N2CCc3[nH]cnc3C2)cc1C [SN00798786]	0.0%
O=C(Nc1ccc2nc(N3CCCN(c4ncccn4)CC3)cc(C(=O)O)c2c1)c1ccccc1F [SN00790270]	0.0%
COc1ccc(-c2nnc(CN3C(=O)NC(C)(CCC(C)C)C3=O)o2)cc1 (centres unmarked) [SN00773994]	0.0%
O=C(C1CC1)N1CCCCCC1C1CCN(c2nccc(C(F)(F)F)n2)CC1 (centres unmarked) [SN00773266]	15.0%
CCCC(=O)Nc1cc(F)c2nc(N3CCCCC3)ccc2c1 [SN00795955]	0.0%

SMILES	% Inhibition n=1 48h
O=C(Nc1cccc(F)c1)c1nnc(C2CCCN2C(=O)Nc2cccc(C(F)(F)F)c2)s1 (centres unmarked) [SN00790473]	8.5%
CC(=O)N1c2ccc(S(=O)(=O)N3CCCCC3)cc2CC1C(=O)N1CCCCC1 (centres unmarked) [SN00791893]	0.0%
CC(C)(C)c1ccc(C(=O)N2CCC3(CC2)NC(c2ccccc2)=NO3)cc1 [SN00801741]	0.0%
COC(=O)c1ccc(Cn2c(-c3nnc(C(C)C)o3)cc3ccccc32)cc1 [SN00789282]	4.4%
CC(NC(=O)Cn1nc(-c2ccccc2)c2ccccc2c1=O)c1ccccc1 (centres unmarked) [SN00783639]	3.0%
Cc1ccc(NC(=O)Nc2ccc3c(c2)CCN3S(=O)(=O)c2ccccc2)cc1 [SN00796277]	10.0%
CCC(C)NC(=O)N1CCc2c(sc3nc(-c4ccc(C)cc4)nn23)C1 (centres unmarked) [SN00790900]	10.9%
CN1C(=O)CC[C@]2(CNC(=O)C3(c4ccccc4)CC3)CCC[C@@H]12 [SN00801306]	21.4%
COc1ccc(S(=O)(=O)n2nc(-c3cc(OC)c(OC)c(OC)c3)cc2N)cc1OC [SN00785320]	21.7%
CCc1noc(C2(NC(=O)c3cc(-c4ccccc4)n[nH]3)CCCCC2)n1 [SN00800487]	0.0%
Cc1ccc(CNC(=O)N2CCN(C3=CC4=NCC(C)N4C=N3)CC2)cc1 (centres unmarked) [SN00800883]	11.9%
Cc1nnc2sc(-c3ccc(CNC(=O)c4cccc(Br)c4)cc3)nn12 [SN00794033]	41.7%
COc1cccc(CNC(=O)Cn2ccc3sccc3c2=O)c1 [SN00797886]	6.6%
COCCn1c(C2CCN(S(=O)(=O)c3cccs3)C2)nc2cccnc21 (centres unmarked) [SN00802004]	5.3%
COc1ccccc1-c1noc(Cn2cnc3c(nnn3Cc3ccccc3)c2=O)n1 [SN00790613]	6.5%
COc1ccc(OC)c(NC(=O)C2CC(=O)N(c3cccc(NC(C)=O)c3)C2)c1 (centres unmarked) [SN00797576]	0.0%
CCC(C)NC(=O)c1cc2c(=O)n(Cc3ccccc3)ccc2s1 (centres unmarked) [SN00797832]	11.3%
CC1(C(=O)NC2CCCCC2)Cn2c(cc3ccccc32)C(=O)N1Cc1ccco1 (centres unmarked) [SN00787436]	0.0%
Cc1c(C(=O)N2CCOCC2C)nnn1-c1cccc2c1CCN(Cc1ccccc1)C2 (centres unmarked) [SN00779590]	5.5%
